From patent US20190314345A1, “CALCINEURIN INHIBITOR AND NON-STEROIDAL ANTI-INFLAMMATORY DRUG TO REDUCE RISK OF POST-IMAGING PANCREATITIS” (UNIVERSITY OF PITTSBURGH - OF THE COMMONWEALTH SYSTEM OF …, priority 2016, published 2019)

Assays:
pancreatic NF-κB = experiment: Imaging pancreatic NF-κB bioluminescence in vivo; parameters: species or system mouse; details: FK506 treatment
Experimental: An AAV6-NF-κB-luciferase reporter was constructed, expanded in HEK293 cells, and purified as previously described^18-20, 39. A volume of 100 μl of virus (10^12 GCP/ml) was infused into the pancreaticobiliary duct at a rate of 10 μl/min using the same technique of RC infusion described above and recently published^21, 39. After a 5-week recovery from the surgery, mice underwent PEP induction with or without FK506 treatment. At varying time points after the surgery, ranging from 2 to 36 hr, bioluminescence signals were obtained by first giving a subcutaneous injection of luciferin (150 μg/g body weight) in the scruff of the neck 15 min before the start of imaging. The mice were briefly anesthetized with isoflurane and placed in the supine position in a bioluminescent imaging chamber (IVIS spectrum imager; Perkin Elmer, Waltham, Mass.) for 3-10 min. Average pixel intensity was measured from a pancreatic region of interest (in the upper abdomen). Raw time points from each mouse were normalized to its individual baseline intensity at time zero.

PEP model in mice [1] = experiment: PEP model with intraductal delivery of Cn inhibitors with the radiocontrast; format: in vivo, mouse; details: CsA 10 μM
Experimental: PEP was induced as previously described^73. Briefly, 100 μl iohexol (Omnipaque, GE Healthcare, Princeton, N.J.) was infused retrograde into the biliopancreatic duct at a rate of 20 μl/min for 5 min. Mice from the ductal manipulation (DM) group received retrograde infusion of 50 μl normal saline into pancreatic ductal at a lower rate of 10 μl/min for 5 min. Mice were euthanized 24 hr after PEP induction by CO2 inhalation and cervical dislocation. Mice from the sham group received laparotomy only. Blood was collected by retro-orbital bleed 6 h after PEP induction. […] Serum amylase was measured using a Phadebas Kit (Amersham Pharmacia, Rochester, N.Y.) according to the manufacturer's instruction. The pancreas, duodenum, and spleen were placed en bloc in a cassette in order to maintain anatomical orientation (FIG. 18A). The tissues were fixed in 4% paraformaldehyde at room temperature for 24 hr. Paraffin-embedded sections were stained with hematoxylin and eosin (HE). Ten systematically selected fields at 200× magnification were graded in a blinded fashion from the head of the pancreas, which was identified by its juxtaposition to the duodenum. […] Labelled areas within the parenchyma were marked as edema, and their surface area was calculated as a percentage of the total parenchymal area.

AR42J cells = experiment: Cell necrosis assay in AR42J cells; format: cell-based; details: FK506 24 μM, CsA 16 μM
Experimental: Acinar cells were incubated in a 48-well plate with 50 μg/ml of propidium iodide (PI) for 30 min prior to addition of RC. Fluorescence was measured at 536 nm excitation and 617 nm emission wavelengths over time a time course of up to 6 hr. Fluorescence was measured after cell lysis with 0.5% Triton-X 100 was used to normalize the results relative to total DNA.

PEP model in mice [2] = experiment: Intra-ductal RC infusion PEP model in mice: histological severity, serum amylase; format: in vivo, mouse
Source text: The procedure for retrograde infusion into the CBD and pancreatic duct has been described before^14. Briefly, Swiss Webster mice were anesthetized with isoflurane. A midline incision was made to reveal the abdominal cavity. The duodenum was flipped to reveal its distal side and held in place by ligatures. […] needle was inserted through the anti-mesenteric aspect of the duodenum to cannulate the CBD. A small bull dog clamp was applied to the distal CBD (near the duodenum) to prevent back flow of the infusate into the duodenal lumen and to hold the cannula in place. A larger bull dog clamp was applied to the proximal CBD (near the liver) to prevent infusion into the liver and thus to direct flow to the pancreatic duct. Total volumes of 50-100 μl of iohexol, iopamidol, or normal saline (NS) were infused at 10-20 μl per min for 5 min using a P33 perfusion pump (Harvard Apparatus, Holliston, Mass.). Upon completion of the infusion, the bull dog clamps were released. The exterior abdominal wound was closed using 7 mm wound clips, and a single injection of buprenorphine (0.075 mg/kg) was given immediately after the surgery. Mice recovered on a heating pad for 30 min after the procedure. They were given free access to food and water after the surgery. The pancreas, duodenum, and spleen were fixed at room temperature for 24 hr in 4% paraformaldehyde. Paraffin-embedded sections were stained with hematoxylin an eosin (HE) and graded using a 20× objective over 10 separate fields in a blinded fashion. Pancreas tissue was graded for edema, inflammatory infiltrate, and necrosis as described by Wildi et al.^67. Whole blood samples were centrifuged at 1500×g for 5 min at 4° C. Serum amylase was measured using a Phadebas kit (Amersham Pharmacia, Rochester N.Y.) as previously described^68.

calcineurin = experiment: NFAT-luciferase activity assay in AR42J cells; format: cell-based; details: pretreatment; FK506 24 μM, CsA 16 μM, U73122 5 μM, 2-APB 100 μM, BAPTA 64 μM
Experimental: Acinar cells were infected with Ad-NFAT-luciferase following a previously described procedure^10, 15, 16. The construct includes a luciferase gene placed downstream of an IL-4 promoter which contains nine tandem NFAT binding sites^10. Acinar cells were incubated with the NFAT-driven luciferase adenovirus for 1.5 hr prior to stimulation. All of the stated inhibitors were added for 30 min prior to stimulation with RC. NFAT-luciferase was measured using the luciferase assay system. Briefly, cells were spun at 1,000 rpm for 5 min, washed with PBS, and lysed using reporter lysis 5× buffer (Promega #E397A, Madison, Wis.). Samples were vortexed and spun at 12,000 g for 2 min. Supernatant was plated, and luminescence was measured using a Synergy H1 plate reader (BioTek, Winooski, Vt.) and normalized to total protein.

C=CC[C@@H]1/C=C(\C)C[C@H](C)C[C@H](OC)[C@H]2O[C@@](O)(C(=O)C(=O)N3CCCC[C@H]3C(=O)O[C@H](/C(C)=C/[C@@H]3CC[C@@H](O)[C@H](OC)C3)[C@H](C)[C@@H](O)CC1=O)[C@H](C)C[C@@H]2OC [FK506, tacrolimus]
effect on RC-induced pancreatic NF-κB (pancreatic NF-κB): markedly blunted | serum amylase elevations seen with PEP (PEP model in mice [1]; 6 hr after infusion, intraductal FK506 1 μM): reduced | reduction of severity of the moderate model of PEP (PEP model in mice [1]; intraductal with radiocontrast, FK506 1 μM, down to sham levels): 61% | effect on RC (12%)-induced acinar cell necrosis (AR42J cells): prevented | effect when given after PEP induction (PEP model in mice [2]; FK506 1 mg/kg after the infusion of RC): reduces pancreatic inflammation | serum amylase (PEP model in mice [2]; FK506 1 mg/kg intraperitoneal 1 hr prior and 2.5, 5.5, 12 hr after RC infusion): reduced down to the level of the NS sham condition | histological severity of the pancreas following pancreatitis (PEP model in mice [2]; FK506 1 mg/kg intraperitoneal 1 hr prior and 2.5, 5.5, 12 hr after RC infusion, 24 hr): prevented | effect of FK506 compared with therapeutic indomethacin on RC-induced pancreatitis (PEP model in mice [2]; FK506 1 mg/kg, indomethacin 7 mg/kg IP after RC infusion): as robust | effect on RC (6%)-induced NFAT-luciferase activity (calcineurin): prevented
